Results reported in US20260354380A1, “PYRAZOLO PESTICIDAL COMPOUNDS” (BASF SE, priority 2022, published 2026).

Tests used:
Assay type in all cases: in vivo
[1] = system: Plutella xylostella; assay: Action on Diamond Back Moth (Plutella xylostella), microtiter plates, insect diet, eggs; settings: 800 ppm; egg and larval mortality; 5 days
Description: Example B8: Action on Diamond Back Moth (Plutella xylostella)
For evaluating control of diamond back moth (Plutella xylostella) the test unit consisted of 96-well-microtiter plates containing an insect diet and 15-25 P. xylostella eggs. The compounds or mixtures were formulated using a solution containing 75% water and 25% DMSO. Different concentrations of formulated compounds or mixtures were sprayed onto the insect diet at 5 μl, using a custom-built micro atomizer, at two replications. For experimental mixtures in these tests identical volumes of both mixing partners at the desired concentrations respectively, were mixed together. After application, microtiter plates were incubated at 28±1 °C, 80±5% RH for 5 days. Egg and larval mortality was then visually assessed.

[2] = system: Heliothis virescens; assay: Action on Tobacco Budworm (Heliothis virescens); settings: 800 ppm; egg and larval mortality; 5 days
Description: Example B5: Action on Tobacco Budworm (Heliothis virescens)
For evaluating control of tobacco budworm (Heliothis virescens) the test unit consisted of 96-well-microtiter plates containing an insect diet and 15-25 H. virescens eggs.
The compounds were formulated using a solution containing 75% v/v water and 25% v/v DMSO. Different concentrations of formulated compounds were sprayed onto the insect diet at 10 μl, using a custom-built micro atomizer, at two replications.
After application, microtiter plates were incubated at about 28±1 °C and about 80±5% relative humidity for 5 days. Egg and larval mortality were then visually assessed.

[3] = system: Plutella xylostella; assay: Action on Diamond Back Moth (Plutella xylostella), cabbage leaf dip, 3rd instar larvae; settings: 300 ppm; 3rd instar larvae; 72 hours after treatment
Description: Example B6: Action on Diamond Back Moth (Plutella xylostella)
The active compound is dissolved at the desired concentration in a mixture of 1:1 (v/v) distilled water:acetone. Surfactant (Kinetic® HV) is added at a rate of 0.01% (v/v). The test solution is prepared at the day of use.
Leaves of cabbage were dipped in test solution and air-dried. Treated leaves were placed in petri dishes lined with moist filter paper and inoculated with ten 3rd instar larvae. Mortality was recorded 72 hours after treatment. Feeding damages were also recorded using a scale of 0-100%.
(§1) Compounds disclosed in the document WO2021013561 were prepared according to procedures described therein and their pesticidal activities were determined by procedure analogues to the procedures as described above in examples B6 and B7.

[4] = system: Aedes aegypti; assay: whole plant or invertebrate; settings: 800 ppm; larvae; 2 days
Description: Example B1: Action on Yellow Fever Mosquito (Aedes aegypti)
For evaluating control of yellow fever mosquito (Aedes aegypti) the test unit consisted of 96-well-microtiter plates containing 200 μl of tap water per well and 5-15 freshly hatched A. aegypti larvae.
The active compounds or mixtures were formulated using a solution containing 75% (v/V) water and 25% (v/v) DMSO. Different concentrations of formulated compounds or mixtures were sprayed onto the insect diet at 2.5 μl, using a custom-built micro atomizer, at two replications. For experimental mixtures in these tests identical volumes of both mixing partners at the desired concentrations respectively, were mixed together.
After application, microtiter plates were incubated at 28±1 °C, 80±5% RH for 2 days. Larval mortality was then visually assessed.

[5] = system: Spodoptera eridania; assay: Action on Southern Armyworm (Spodoptera eridania), 2nd Instar Larvae; settings: 300 ppm; 2nd instar larvae; 4 days after treatment
Description: Example B7: Action on Southern Armyworm (Spodoptera eridania), 2nd Instar Larvae
The active compounds were formulated by a Tecan liquid handler in 100% cyclohexanone as a 10,000 ppm solution supplied in tubes. The 10,000 ppm solution was serially diluted in 100% cyclohexanone to make interim solutions. These served as stock solutions for which final dilutions were made by the Tecan in 50% acetone: 50% water (v/v) into 10 or 20 ml glass vials. A nonionic surfactant (Kinetic®) was included in the solution at a volume of 0.01% (v/v). The vials were then inserted into an automated electrostatic sprayer equipped with an atomizing nozzle for application to plants/insects.
Lima bean plants (variety Sieva) were grown 2 plants to a pot and selected for treatment at the 1st true leaf stage. Test solutions were sprayed onto the foliage by an automated electrostatic plant sprayer equipped with an atomizing spray nozzle. The plants were dried in the sprayer fume hood and then removed from the sprayer. Each pot was placed into perforated plastic bags with a zip closure. About 10 to 11 armyworm larvae were placed into the bag and the bags zipped closed. Test plants were maintained in a growth room at about 25 °C and about 20-40% relative humidity for 4 days, avoiding direct exposure to fluorescent light (24 hour photoperiod) to prevent trapping of heat inside the bags. Mortality and reduced feeding were assessed 4 days after treatment, compared to untreated control plants.
as §1

[6] = system: Anthonomus grandis; assay: Action on Boll Weevil (Anthonomus grandis); settings: 800 ppm; egg and larval mortality; 5 days
Description: Example B3: Action on Boll Weevil (Anthonomus grandis)
For evaluating control of boll weevil (Anthonomus grandis) the test unit consisted of 96-well-microtiter plates containing an insect diet and 5-10 A. grandis eggs.
The compounds were formulated using a solution containing 75% (v/v) water and 25% (v/v) DMSO. Different concentrations of formulated compounds were sprayed onto the insect diet at 5 μl, using a custom-built micro atomizer, at two replications.
After application, microtiter plates were incubated at about 25±1 °C and about 75±5% relative humidity for 5 days. Egg and larval mortality were then visually assessed.

Compound	mortality in comparison with untreated controls [1]	mortality in comparison with untreated controls [2]	mortality in comparison with untreated controls [3]	mortality in comparison with untreated controls [4]	mortality in comparison with untreated controls [5]	mortality in comparison with untreated controls [6]
Cc1ccc(C(C)C)c(N2C(=O)CSC2=NC(=O)Nc2ccc(-n3cc(NC(=O)c4ccc(C(C)(C)C)cc4)c(C)n3)cc2)c1 [Example C-73]	at least 75%	–	–	–	–	–
CNC(=O)c1ccc(C(=O)Nc2cn(-c3ccc(NC(=O)N=C4SCC(=O)N4c4cc(C)ccc4C(C)C)cc3)nc2C)cn1 [Example C-60]	at least 75%	–	–	–	–	–
Cc1ccc(C(C)C)c(N2C(=O)CSC2=NC(=O)Nc2ccc(-n3cc(NC(=O)c4ccc(C(F)F)cc4)c(C)n3)cc2)c1 [Example C-82]	–	at least 75%	at least 75%	at least 50%	at least 75%	at least 75%
Cc1ccc(C(C)C)c(N2C(=O)CS/C2=N\C(=O)Nc2ccc(-n3cc(NC(=O)c4ccc(C)s4)c(C)n3)cc2)c1 [Example C-94]	–	at least 75%	at least 75%	at least 50%	at least 75%	at least 75%
Cc1ccc(C(C)C)c(N2C(=O)CS/C2=N\C(=O)Nc2ccc(-n3nc(C)c(NC(=O)c4ccc(OC(F)(F)F)c(F)c4)c3C)c(F)c2)c1 [Example C-21]	–	at least 75%	at least 75%	at least 50%	at least 75%	at least 75%
Cc1ccc(C(C)C)c(N2C(=O)CSC2=NC(=O)Nc2ccc(-n3cc(NC(=O)c4ccc(C5CC5(F)F)cc4)c(C)n3)cc2)c1 (racemic) [Example C-65]	–	at least 75%	at least 75%	at least 50%	at least 75%	at least 75%
Cc1ccc(C(C)C)c(N2C(=O)CSC2=NC(=O)Nc2ccc(-n3cc(NC(=O)c4ccc(S(C)(=O)=O)cc4)c(C)n3)cc2)c1 [Example C-53]	at least 75%	–	–	–	–	–
Cc1ccc(C(C)C)c(N2C(=O)CS/C2=N\C(=O)Nc2ccc(-n3cc(NC(=O)c4ccc(Cl)c(Cl)c4)c(C)n3)cc2)c1 [Example C-26]	–	at least 75%	at least 75%	at least 50%	at least 75%	at least 75%
Cc1ccc(C(C)C)c(N2C(=O)CSC2=NC(=O)Nc2ccc(-n3cc(NC(=O)c4csc(Cl)n4)c(C)n3)cc2)c1 [Example C-43]	–	at least 75%	at least 75%	at least 50%	at least 75%	at least 75%
Cc1ccc(C(C)C)c(N2C(=O)CS/C2=N\C(=O)Nc2ccc(-n3cc(NC(=O)c4ccc(C(C)(F)F)cc4)c(C)n3)cc2)c1 [Example C-36]	–	at least 75%	at least 75%	at least 50%	at least 75%	at least 75%
Cc1ccc(C(C)C)c(N2C(=O)CSC2=NC(=O)Nc2ccc(-n3cc(NC(=O)c4ccc(C5(F)CC5)cc4)c(C)n3)cc2)c1 [Example C-88]	–	at least 75%	at least 75%	at least 50%	at least 75%	at least 75%
Cc1ccc(C(C)C)c(N2C(=O)CS/C2=N\C(=O)Nc2ccc(-n3cc(NC(=O)c4ccc(C#N)cc4Cl)c(C)n3)cc2)c1 [Example C-35]	–	at least 75%	at least 75%	at least 50%	at least 75%	at least 75%
Cc1ccc(C(C)C)c(N2C(=O)CSC2=NC(=O)Nc2ccc(-n3cc(NC(=O)c4ccc(S(=O)(=O)C(F)(F)F)cc4)c(C)n3)cc2)c1 [Example C-79]	–	at least 75%	at least 75%	at least 50%	at least 75%	at least 75%
Cc1ccc(C(F)(F)F)c(N2C(=O)CSC2=NC(=O)Nc2ccc(-n3cc(NC(=O)c4ccc(OC(F)(F)F)cc4)c(C)n3)cc2)c1 [Example C-12]	–	at least 75%	at least 75%	at least 50%	at least 75%	at least 75%
Cc1csc(C(=O)Nc2cn(-c3ccc(NC(=O)/N=C4\SCC(=O)N4c4cc(C)ccc4C(C)C)cc3)nc2C)c1 [Example C-93]	–	at least 75%	at least 75%	at least 50%	at least 75%	at least 75%
Cc1ccc(C(C)C)c(N2C(=O)CS/C2=N\C(=O)Nc2ccc(-n3cc(NC(=O)c4ccc(Br)cc4)c(C)n3)cc2)c1 [Example C-30]	–	at least 75%	at least 75%	at least 50%	at least 75%	at least 75%
Cc1ccc(C(C)C)c(N2C(=O)CSC2=NC(=O)Nc2ccc(-n3cc(NC(=O)c4ccc(I)cc4)c(C)n3)cc2)c1 [Example C-71]	–	at least 75%	at least 75%	at least 50%	at least 75%	at least 75%
Cc1ccc(C(C)C)c(N2C(=O)CSC2=NC(=O)Nc2ccc(-n3cc(NC(=O)c4ccncc4)c(C)n3)cc2)c1 [Example C-59]	–	at least 75%	at least 75%	at least 50%	at least 75%	at least 75%
